In test [1] the target is T1, human IDO (IDO1-expressing HEK293 cells) (Homo sapiens, UniProt P14902).
T1 construct: expressed in transfected cells
Nature of the test: Cell based kynurenine assay, IDO1-expressing HEK293 cell clones. Put shortly: (§1)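 IC50 values come from nonlinear regression of kynurenine reduction in supernatants of human IDO1- or TDO-expressing HEK293 cells incubated 24 h with serially diluted compounds, normalised to cell and media-only controls containing 0.2% DMSO.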

The target in test [2] is T2, Human Tryptophan 2,3-dioxygenase (TDO) (Homo sapiens, UniProt P48775).
T2 construct: His tag (N); made in house; host or cells: E. coli
T2 sequence (P48775 whole entry): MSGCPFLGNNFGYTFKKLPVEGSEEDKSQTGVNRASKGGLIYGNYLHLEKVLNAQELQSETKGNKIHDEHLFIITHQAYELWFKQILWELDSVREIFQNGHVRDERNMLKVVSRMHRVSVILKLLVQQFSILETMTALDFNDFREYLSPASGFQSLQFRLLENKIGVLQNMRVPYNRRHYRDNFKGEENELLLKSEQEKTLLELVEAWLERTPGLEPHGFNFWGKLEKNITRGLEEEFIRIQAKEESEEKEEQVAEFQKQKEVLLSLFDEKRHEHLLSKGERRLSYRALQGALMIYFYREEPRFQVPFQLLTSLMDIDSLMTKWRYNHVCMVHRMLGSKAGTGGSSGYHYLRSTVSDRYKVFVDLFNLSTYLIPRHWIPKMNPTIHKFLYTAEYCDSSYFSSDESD
Briefly: Human TDO enzymatic assay (kynurenine level). Format: biochemical. Put shortly: (§2)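 Reactions were stopped with TCA, converting N-formylkynurenine to kynurenine for quantitation, with IC50 by nonlinear regression. IDO: 6 nM enzyme, 10 μM L-Trp, 20 min RT. TDO: 1 nM enzyme, 350 μM L-Trp, 70 min RT, both in pH 6.5 buffer.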

Test [3] concerns the target T3, human TDO (TDO-expressing HEK293 cells) (Homo sapiens, UniProt P48775).
T3 construct: expressed in transfected cells
Briefly: Cell based kynurenine assay, TDO-expressing HEK293 cell clones. Put shortly:
as §1

In test [4] the target is T4, Human Indoleamine 2,3-dioxygenase (IDO) (Homo sapiens, UniProt P14902).
T4 construct: His tag (N); made in house; host or cells: E. coli
T4 sequence (P14902 whole entry): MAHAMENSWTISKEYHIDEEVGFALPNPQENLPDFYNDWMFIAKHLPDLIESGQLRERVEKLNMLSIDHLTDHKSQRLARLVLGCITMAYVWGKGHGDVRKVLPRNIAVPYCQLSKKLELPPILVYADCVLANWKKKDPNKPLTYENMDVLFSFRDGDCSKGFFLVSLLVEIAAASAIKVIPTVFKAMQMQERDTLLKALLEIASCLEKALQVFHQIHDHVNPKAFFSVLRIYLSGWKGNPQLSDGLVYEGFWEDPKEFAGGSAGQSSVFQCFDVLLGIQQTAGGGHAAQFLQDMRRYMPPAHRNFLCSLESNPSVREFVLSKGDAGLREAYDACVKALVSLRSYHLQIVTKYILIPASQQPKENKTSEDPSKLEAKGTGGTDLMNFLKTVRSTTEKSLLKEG
Nature of the test: Human IDO enzymatic assay (kynurenine level). Type of test: biochemical. Put shortly: as §2

Where [5] appears, read: IDO1-expressing HEK293 cells, 24 hours, geometric mean, read-out: HEK293 IDO1 Kynurenine GMean IC50 (μM) (Cellular Assay).
The mark [6] stands for this setting: 1 nM TDO, 350 μM L-Trp, geometric mean, read-out: TDO GMean: IC50 (μM) (Biochemical Assay).
Where [7] appears, read: TDO-expressing HEK293 cells, 24 hours, geometric mean, read-out: HEK293 TDO Kynurenine GMean IC50 (μM) (Cellular Assay).
Where [8] appears, read: 6 nM IDO, 10 μM L-Trp, geometric mean, read-out: IDO1 GMean: IC50 (μM) (Biochemical Assay).
The mark [9] stands for this setting: cellular assay, HEK293, 24 hours, comparative examples, read-out: hIDO1.
[10] abbreviates: biochemical assay, comparative examples, 4,6 versus 5,7 indazole, read-out: TDO.
[11] abbreviates: cellular assay, HEK293, 24 hours, comparative examples, read-out: hTDO.
The mark [12] stands for this setting: biochemical assay, comparative examples, 4,6 versus 5,7 indazole, read-out: IDO1.

Read-outs that look alike come from different tables or passages of the source.

T1 sequence (P14902 whole entry): as above
T3 sequence (P48775 whole entry): as the sequence (P48775 whole entry) above

Regarding `C#CCNC(=O)N1CCC(C(C)(C)[C@H](O)c2cc(Cl)cc3cn[nH]c23)CC1` [Compound P-0568, (S)-4-(1-(5-chloro-1H-indazol-7-yl)-1-hydroxy-2-methylpropan-2-yl)-N-(prop-2-yn-1-yl)piperidine-1-carboxamide], the IC50 in test [1] (setting [5]), in test [2] (setting [6]), in test [3] (setting [7]) and in test [4] (setting [8]) was 0.0001 to 10 µM in each case.

In the case of `CC(C)(C1CCN(C(=O)Nc2cccc(C#N)c2)CC1)[C@H](O)c1cc(Cl)cc2cn[nH]c12` [Compound P-0569, (S)-4-(1-(5-chloro-1H-indazol-7-yl)-1-hydroxy-2-methylpropan-2-yl)-N-(3-cyanophenyl) piperidine-1-carboxamide], the IC50 in test [1] (setting [5]), in test [2] (setting [6]), in test [3] (setting [7]) and in test [4] (setting [8]) was 0.0001 to 10 µM in each case.

Regarding `CC(C)(C1CCN(C(=O)Nc2ccc(C#N)nc2)CC1)C(O)c1cc(Cl)cc2cn[nH]c12` (stereo not drawn) [Compound P-0570, 4-(1-(5-chloro-1H-indazol-7-yl)-1-hydroxy-2-methylpropan-2-yl)-N-(6-cyanopyridin-3-yl)piperidine-1-carboxamide], the IC50 in test [1] (setting [5]), in test [2] (setting [6]), in test [3] (setting [7]) and in test [4] (setting [8]) was 0.0001 to 10 µM in each case.

Take `OC(c1cc(Cl)cc2cn[nH]c12)C1CCCCC1` (stereo not drawn) [drawing 810]: the IC50 in test [1] (setting [9]) is 0.23 µM; in test [2] (setting [10]) it was 0.17 µM; in test [3] (setting [11]), 1.2 µM; in test [4] (setting [12]), 0.05 µM.

On to `COC12CCC(C(O)c3cc(Cl)cc4cn[nH]c34)(CC1)CC2` (stereo not drawn) [drawing 812], for which the IC50 in test [1] (setting [9]) is 0.08 µM; in test [2] (setting [10]), 1.18 µM; in test [3] (setting [11]), 2.63 µM; in test [4] (setting [12]), 0.11 µM.

With `CC(C)(C1CCN(S(C)(=O)=O)CC1)C(O)c1cc(Cl)cc2cn[nH]c12` (stereo not drawn) [drawing 814], the IC50 was determined as 0.08 µM in test [1] (setting [9]), 0.15 µM in test [2] (setting [10]), 0.42 µM in test [3] (setting [11]) and 0.03 µM in test [4] (setting [12]).

Regarding `CC(C)(C1CCOCC1)C(O)c1cc(Cl)cc2cn[nH]c12` (stereo not drawn) [drawing 816], the IC50 in test [1] (setting [9]) is 0.08 µM; in test [2] (setting [10]), 1.18 µM; in test [3] (setting [11]) it was 2.63 µM; in test [4] (setting [12]), 0.11 µM.

`CC(C)(C1CCOCC1)C(O)c1cc(Cl)cc2[nH]ncc12` (stereo not drawn) [drawing 817]: the IC50 in test [1] (setting [9]) worked out at 6.94 µM; in test [2] (setting [10]) it was 0.08 µM; in test [3] (setting [11]) it was 0.01 µM; in test [4] (setting [12]), 0.95 µM.

For `OC1(c2cc(Cl)cc3cn[nH]c23)CC2(CCOCC2)C1` [drawing 820], the IC50 in test [1] (setting [9]) was 0.4 µM; in test [2] (setting [10]) it was 0.22 µM; in test [3] (setting [11]) it was 2.41 µM; in test [4] (setting [12]) it was 0.16 µM.

Source of the values: US10508085B2, “Compounds and methods for IDO and TDO modulation, and indications therefor” (Plexxikon Inc., priority 2016, dated 2019).
